Assay results from publication PMC3878165 (Bioorganic & Medicinal Chemistry Letters, 2013).

Assays:
[1] = target: melatonin MT1 receptor (Homo sapiens, UniProt P48039); type: binding
[2] = system: Eurofins lead-profiling screen; type: binding
[3] = target: PLpro (Severe acute respiratory syndrome coronavirus, UniProt P0C6U8); assay: biochemical; design: species or system SARS-CoV

Sequence of melatonin MT1 receptor (P48039 whole entry): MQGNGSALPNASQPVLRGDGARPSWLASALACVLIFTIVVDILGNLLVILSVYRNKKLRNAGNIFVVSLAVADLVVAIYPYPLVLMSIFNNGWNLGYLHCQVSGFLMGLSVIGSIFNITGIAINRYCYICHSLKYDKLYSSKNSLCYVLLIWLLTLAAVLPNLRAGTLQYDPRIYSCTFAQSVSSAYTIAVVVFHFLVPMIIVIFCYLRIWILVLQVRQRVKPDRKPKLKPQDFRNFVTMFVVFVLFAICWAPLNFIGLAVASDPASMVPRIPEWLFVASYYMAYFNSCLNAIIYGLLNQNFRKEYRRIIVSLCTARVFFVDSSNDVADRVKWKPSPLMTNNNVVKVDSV

O=C(Nc1ccc(N(Cc2ccsc2)C(=O)Cn2nnc3ccccc32)cc1)C1CC1 [16e]
melatonin MT1 receptor activity in words [1]: modest activity
Eurofins Profiler Screen result in words [2]: highly selective

CCC(C)(C)NC(=O)[C@@H](c1ccn(C)c1)N(C(=O)Cn1nnc2ccccc21)c1ccc(NC(C)=O)cc1 [compound 7]
IC50 [3]: > 60 µM
